These results are taken from US8609607B2, “Modified defensins and their use” (The United States of America as represented by the …, priority 2002, dated 2013).

One data set concerns CD3+ T-cells. As to the kind of experiment: T cell chemotaxis assay. The settings on record: 0.025 to 25 nM, 4 hours; compared to unmodified HNP; FIG. 4C. Type of data set: cell-based, human. As to the method: CD3^+ T-cells were isolated from human peripheral blood prepared by leukapheresis (NIH, Department of Transfusion Medicine, Bethesda, Md.) (Chertov et al, J. Biol. Chem. 271:2935-2940, 1996) and suspended in migration medium (RPMI 1640, 0.5% bovine serum albumin, 25 mM HEPES). Inserts coated with collagen IV (Becton Dickinson Labware, Bedford, Mass.) were placed into 24-well culture plates to form upper and a lower chambers in each well. Upper chambers were wetted with migration medium, then 500 μl of migration medium with or without ADP-ribosyl-HNP-1 or HNP-1 (0.025 to 25 nM) were added to the lower chamber. Cells were added to the upper chamber and plates were incubated at 37° C. in 5% CO2 for 4 hours. Cells incubated in the presence or absence of (macrophage inflammatory protein-1β) MIP-1β (5 ng/ml) were the positive and negative controls, respectively. Lymphocytes that had migrated to the lower chamber were harvested by centrifugation and counted in a hematocytometer. Chemotaxis percentage was calculated as follows: (number of cells migrated to the lower chamber in the experimental conditions−number of cells migrated in the negative control)/(number of cells migrated in the positive control−number of cells migrated in negative control)×100.

Data set [1] deals with Escherichia coli ATCC43827. As to the kind of experiment: radial diffusion assay, antibacterial activity. Type of data set: cell-based. The settings on record: compared to unmodified HNP-1; 16-256 nM; FIG. 2A. The method, then: (§1) The antibacterial activity of various concentrations of HNP-1 and ADP-ribosyl-HNP-1 (16 nM, 32 nM, 64 nM, 128 nM, 256 nM) on Escherichia coli ATCC43827 (American Type Culture Collection, Rockville, Md.) was evaluated by the radial diffusion assay (Takemura et al., Antimicrob. Agents Chemother. 40: 2280-2284, 1996). Antimicrobial activity was positively correlated with the diameter of a zone cleared of E. coli growth (minus the diameter of the central well (3 mm)).

Data set [2] has as its system A549 cells. Kind of data set: chromium release assay, defensin cytotoxicity. The settings on record: compared to unmodified HNP-1; 1.5-24 μM, 18 hours, 37° C.; FIG. 2B. Type of data set: cell-based. As to the method:
(§2) Chromium (^51Cr)-labeled A549 cells (American Type Culture Collection) were incubated (18 hours, 37° C.) in 100 μl of serum-free RPMI (Gibco Fluids Inc., Rockville, Md.) containing various concentrations of HNP-1, synthetic HNP-1, or ADP-ribosyl-HNP-1 (1.5 μM, 3 μM, 6 μM, 12 μM, 24 μM) to quantify defensin cytotoxicity. Cytotoxicity was positively correlated with the amount of chromium released from lysed cells (Panyutich et al., Am. J. Respir. Cell. Mol. Biol. 12:351-357, 1995). Percent of lysis was calculated as (cpmexp−cpmspont)/(cpmmax−cpmspont)×100 (exp, experimental conditions; max, maximal release; spont, spontaneous release).

In data set [3] the test system is A549 cells. Kind of data set: IL-8 production by A549 cells (indirect ELISA). Type of data set: cell-based. Conditions: 12 or 24 hours. The method, then:
A549 cells (3×10^4 cells per well) were incubated in a 96-well plate in 200 μl of serum-free RPMI medium (Gibco Fluids Inc) containing ADP-ribosyl-HNP-1 or HNP-1 (0.25, 0.75, 1.5, 3 μM). Culture medium was sampled after 12 or 24 hours of incubation and IL-8 content in the medium was assayed by indirect ELISA (FIGS. 4A and 4B) according to the manufacturer's instructions (R & D System Inc. Minneapolis, Minn.).
(In general: An ELISA detects its analyte on a solid surface through an enzyme-linked reagent.)

The next data set relates to E. coli. Kind of data set: radial diffusion assay, effect of ADP-ribosylated HNP-1 on HNP-1 activity. It is filed as cell-based. The settings on record: HNP-1 100 nM incubated 1 hour at 37° C. with 0-800 nM ADP-ribosylated HNP-1; FIG. 3A. The method, then:
as §1
HNP-1 (100 nM) was incubated for 1 hour at 37° C. with various concentrations of ADP-ribosylated HNP-1 (0-800 nM) before the initiation of the E. coli radial diffusion assay. The radial diffusion assay was performed as described in Example 4.

Data set [4] has as its system A549 cells. Kind of data set: chromium release assay, effect of ADP-ribosylated HNP-1 on HNP-1 cytotoxic activity. Conditions: HNP-1 12 μM incubated 1 hour at 37° C. with 0-12 μM ADP-ribosyl-HNP-1; FIG. 3B. It is filed as cell-based. As to the method: as §2
HNP-1 (12 μM) was incubated with various concentrations of ADP-ribosyl-HNP-1 (0-12 μM) for 1 hour at 37° C. before the initiation of the chromium release assay. The chromium release assay was performed as described in Example 5. HNP-1 and ADP-ribosyl-HNP-1 (0-12 μM) were included as controls.

With “ADP-ribosylated HNP-1: HNP-1 (SEQ ID NO:2) mono-ADP-ribosylated by ART-1 with NAD, at arginine 14”, the “ability to recruit T cells (chemotaxis)” value in the data set on CD3+ T-cells is “retained the ability to recruit T cells at a level that was comparable to unmodified HNP”. Further, the “antibacterial activity (diameter of zone cleared of E. coli growth)” value in data set [1] is recorded as “reduced antibacterial activity”. For the same substance, the “cytotoxicity (lysis of 51Cr-labeled A549 cells)” value in the data set on A549 cells [2] is “less cytotoxic than unmodified HNP-1”. For the same substance, the “IL-8 release into the medium versus unmodified peptide” value in the data set on A549 cells [3] (0.75 μM peptide, P=0.01) was “significantly higher”; with A549 cells [3] (1.5 μM peptide, P=0.01) it was “significantly higher”; in the data set with A549 cells [3] (3 μM peptide) it was “no differences”. Besides, the “effect on antimicrobial/cytotoxic activity of HNP-1, radial diffusion assay” value with E. coli is reported as “blocked the cytotoxic activity of HNP-1 in a concentration-dependent manner”. For the same substance, the “effect on cytotoxic activity of HNP-1, chromium release assay” value with A549 cells [4] is given as “blocked the cytotoxic activity of HNP-1 in a concentration-dependent manner”.
